Measurements taken from patent US7109193B2, “Tricyclic diazepines tocolytic oxytocin receptor antagonists” (Wyeth, priority 2001, dated 2006).

Biological target: T1, human vasopressin V1a receptor subtype (Homo sapiens, UniProt P37288)
T1 construct: host or cells: CHO cells (pZeoSV vector for the Thibonnier line)
Test: Vasopressin binding in Chinese Hamster Ovary cell membranes expressing human vasopressin V1a subtype receptors
Conditions: CHO cell membranes, [3H]Manning ligand; for IC50: values in parentheses; for inhibition at 0.1 µM: 100 nM, values without parentheses
In short: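 Membranes from CHO cells expressing human V1a receptor were incubated with [3H]Manning ligand (added as 20 μL of 8 nM) in pH 7.4 Tris buffer with MgCl2, BSA and protease inhibitors, 60 min at room temperature. Bound radioactivity was counted after filtration; values are percent inhibition at a stated concentration or IC50.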

T1 sequence (P37288 whole entry): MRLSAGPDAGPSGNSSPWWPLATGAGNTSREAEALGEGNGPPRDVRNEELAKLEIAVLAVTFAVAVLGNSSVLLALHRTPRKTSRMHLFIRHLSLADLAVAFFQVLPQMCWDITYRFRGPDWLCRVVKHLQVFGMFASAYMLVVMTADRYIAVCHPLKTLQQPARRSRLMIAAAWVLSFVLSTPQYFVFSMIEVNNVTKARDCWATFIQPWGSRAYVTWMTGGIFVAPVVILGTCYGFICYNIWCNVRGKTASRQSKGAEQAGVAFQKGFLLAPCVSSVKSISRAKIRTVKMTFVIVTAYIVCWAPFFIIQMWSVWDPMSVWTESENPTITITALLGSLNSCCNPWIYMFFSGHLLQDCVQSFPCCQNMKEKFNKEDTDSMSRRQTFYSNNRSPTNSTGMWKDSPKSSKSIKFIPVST

Row | Compound | IC50 [nM] | inhibition at 0.1 µM [%]
1 | COc1cc(-c2ccccc2C)c(Cl)cc1C(=O)N1Cc2ccc(C(=O)N3CCC(N4CCCC4)CC3)n2Cc2ccccc21 [Example 136, {10-[(6-Chloro-3-methoxy-2′-methyl[1,1′-biphenyl]-4-yl)carbonyl]-10,11-dihydro-5H-pyrrolo[2,1-c][1,4]benzodiazepin-3-yl}[4-(1-pyrrolidinyl)-1-piperidinyl]methanone] | 538 | –
2 | COc1cc(-c2ccccc2F)c(Cl)cc1C(=O)N1Cc2cccn2Cc2ccccc21 [Example 18B, 10-{[6-Chloro-3-methoxy-2′-fluoro-[1,1′-biphenyl]-4-yl]carbonyl}-10,11-dihydro-5H-pyrrolo[2,1-c][1,4]benzodiazepine] | 386 | –
3 | COc1ccccc1-c1ccc(C(=O)N2Cc3ccc(C(=O)N4CCC(N5CCCCC5)CC4)n3Cc3ccccc32)cc1 [Example 111, {10-[(2′-Methoxy[1,1′-biphenyl]-4-yl)carbonyl]-10,11-dihydro-5H-pyrrolo[2,1-c][1,4]benzodiazepin-3-yl}[4-(1-piperidinyl)-1-piperidinyl]methanone] | 459 | –
4 | COc1cc(-c2ccccc2C(F)(F)F)c(OC)cc1C(=O)N1Cc2cccn2Cc2ccccc21 [Example 32, 10-{[3,6-Dimethoxy-2′-trifluoromethyl-[1,1′-biphenyl]-4-yl]carbonyl}-10,11-dihydro-5H-pyrrolo[2,1-c][1,4]benzodiazepine] | > 3000 | –
5 | COc1cc(-c2ccccc2C)c(Cl)cc1C(=O)N1Cc2ccc(C(=O)N(C)CCN(C)C)n2Cc2ccccc21 [Example 86, 10-[(6-Chloro-3-methoxy-2′-methyl[1,1′-biphenyl]-4-yl)carbonyl]-N-[2-(dimethylamino)ethyl]-N-methyl-10,11-dihydro-5H-pyrrolo[2,1-c][1,4]benzodiazepine-3-carboxamide] | 172 | –
6 | COc1cc(-c2ccccc2C)c(Cl)cc1C(=O)N1Cc2ccc(C(=O)N3CCC(N4CCCCC4)CC3)n2Cc2ccccc21 [Example 110, {10-[(6-Chloro-3-methoxy-2′-methyl[1,1′-biphenyl]-4-yl)carbonyl]-10,11-dihydro-5H-pyrrolo[2,1-c][1,4]benzodiazepin-3-yl}[4-(1-piperidinyl)-1-piperidinyl]methanone] | 661 | –
7 | COc1cc(C(=O)N2Cc3ccc(C(=O)N(C)CCCN(C)C)n3Cc3ccccc32)ccc1-c1cccc2ccccc12 [Example 106, N-[3-(Dimethylamino)propyl]-10-[3-methoxy-4-(1-naphthyl)benzoyl]-N-methyl-10,11-dihydro-5H-pyrrolo[2,1-c][1,4]benzodiazepine-3-carboxamide] | – | 22
8 | Cc1cc(C(=O)N2Cc3ccc(C(=O)N(C)CCN(C)C)n3Cc3ccccc32)ccc1-c1ccccc1C(F)(F)F [Example 85, N-[2-(Dimethylamino)ethyl]-N-methyl-10-{[2-methyl-2′-(trifluoromethyl)[1,1′-biphenyl]-4-yl]carbonyl}-10,11-dihydro-5H-pyrrolo[2,1-c][1,4]benzodiazepine-3-carboxamide] | 788 | –
9 | COc1cc(-c2ccccc2Cl)c(Cl)cc1C(=O)N1Cc2ccc(C(=O)N(C)C3CCN(C)CC3)n2Cc2ccccc21 [Example 43, 10-[(2′-Chloro-6-chloro-3-methoxy-[1,1′-biphenyl]-4-yl)carbonyl]-N-methyl-N-(1-methylpiperidin-4-yl)-10,11-dihydro-5H-pyrrolo[2,1-c][1,4]benzodiazepine-3-carboxamide] | 312 | –
10 | COc1cccc(-c2cc(OC)c(C(=O)N3Cc4ccc(C(=O)N(C)CCN(C)C)n4Cc4ccccc43)cc2Cl)c1 [Example 87, 10-[(6-Chloro-3,3′-dimethoxy[1,1′-biphenyl]-4-yl)carbonyl]-N-[2-(dimethylamino)ethyl]-N-methyl-10,11-dihydro-5H-pyrrolo[2,1-c][1,4]benzodiazepine-3-carboxamide] | 349 | –
11 | COc1cccc(-c2ccc(C(=O)N3Cc4ccc(C(=O)N5CCC[C@H]5CN5CCCC5)n4Cc4ccccc43)cc2C)c1 [Example 263, {10-[(3′-Methoxy-2-methyl[1,1′-biphenyl]-4-yl)carbonyl]-10,11-dihydro-5H-pyrrolo[2,1-c][1,4]benzodiazepin-3-yl}[(2S)-2-(1-pyrrolidinylmethyl)pyrrolidinyl]methanone] | 202 | –
12 | Cc1ccccc1-c1ccc(C(=O)N2Cc3ccc(C(=O)N(C)CCN(C)C)n3Cc3ccccc32)cc1 [Example 91, N-[2-(Dimethylamino)ethyl]-N-methyl-10-[(2′-methyl[1,1′-biphenyl]-4-yl)carbonyl]-10,11-dihydro-5H-pyrrolo[2,1-c][1,4]benzodiazepine-3-carboxamide] | – | 90
13 | Cc1cc(C(=O)N2Cc3ccc(C(=O)NC(=N)N)n3Cc3ccccc32)ccc1-c1ccccc1C(F)(F)F [Example 8, N-[(10-{[2-methyl-2′-(trifluoromethyl)[1,1′-biphenyl]-4-yl]carbonyl}-10,11-dihydro-5H-pyrrolo[2,1-c][1,4]benzodiazepin-3-yl)carbonyl]guanidine] | 1370 | –
14 | COc1cccc(-c2ccc(C(=O)N3Cc4ccc(C(=O)N(C)CCCN(C)C)n4Cc4ccccc43)cc2C)c1 [Example 102, N-[3-(Dimethylamino)propyl]-10-[(3′-methoxy-2-methyl[1,1′-biphenyl]-4-yl)carbonyl]-N-methyl-10,11-dihydro-5H-pyrrolo[2,1-c][1,4]benzodiazepine-3-carboxamide] | – | 45

Results, then the compound that gave them:

Row | IC50 [nM] | inhibition at 0.1 µM [%] | Compound
15 | 484 | – | COc1ccccc1-c1ccc(C(=O)N2Cc3ccc(C(=O)N4CCN(C)CC4)n3Cc3ccccc32)cc1 [Example 48, {10-[(2′-Methoxy[1,1′-biphenyl]-4-yl)carbonyl]-10,11-dihydro-5H-pyrrolo[2,1-c][1,4]benzodiazepin-3-yl}(4-methyl-1-piperazinyl)methanone]
16 | – | 4 | COc1ccccc1-c1ccc(C(=O)N2Cc3ccc(C(=O)NCCCN(C)C)n3Cc3ccccc32)cc1OC [Example 81, 10-[(2,2′-Dimethoxy[1,1′-biphenyl]-4-yl)carbonyl]-N-[3-(dimethylamino)propyl]-10,11-dihydro-5H-pyrrolo[2,1-c][1,4]benzodiazepine-3-carboxamide]
17 | – | 78 | COc1cc(C(=O)N2Cc3ccc(C(=O)N(C)CCN(C)C)n3Cc3ccccc32)ccc1-c1ccccc1C [Example 92, N-[2-(Dimethylamino)ethyl]-10-[(2-methoxy-2′-methyl[1,1′-biphenyl]-4-yl)carbonyl]-N-methyl-10,11-dihydro-5H-pyrrolo[2,1-c][1,4]benzodiazepine-3-carboxamide]
18 | – | 75 | Cc1ccccc1-c1ccc(C(=O)N2Cc3ccc(C(=O)N(C)CCCN(C)C)n3Cc3ccccc32)cc1C [Example 101, N-[3-(Dimethylamino)propyl]-10-[(2,2′-dimethyl[1,1′-biphenyl]-4-yl)carbonyl]-N-methyl-10,11-dihydro-5H-pyrrolo[2,1-c][1,4]benzodiazepine-3-carboxamide]
19 | 1890 | – | Cc1cc(C(=O)N2Cc3ccc(C(=O)N4CCCN(C)CC4)n3Cc3ccccc32)ccc1-c1ccccc1C(F)(F)F [Example 59, (4-Methyl-1,4-diazepan-1-yl)(10-{[2-methyl-2′-(trifluoromethyl)[1,1′-biphenyl]-4-yl]carbonyl}-10,11-dihydro-5H-pyrrolo[2,1-c][1,4]benzodiazepin-3-yl)methanone]
20 | 933 | – | COc1ccccc1-c1ccc(C(=O)N2Cc3ccc(C(=O)N4CCN(CCCN(C)C)CC4)n3Cc3ccccc32)cc1C [Example 245, {4-[3-(Dimethylamino)propyl]-1-piperazinyl}{10-[(2′-methoxy-2-methyl[1,1′-biphenyl]-4-yl)carbonyl]-10,11-dihydro-5H-pyrrolo[2,1-c][1,4]benzodiazepin-3-yl}methanone]
21 | – | 44 | COc1ccccc1-c1ccc(C(=O)N2Cc3ccc(C(=O)N(C)CCN(C)C)n3Cc3ccccc32)cc1C [Example 88, N-[2-(Dimethylamino)ethyl]-10-[(2′-methoxy-2-methyl[1,1′-biphenyl]-4-yl)carbonyl]-N-methyl-10,11-dihydro-5H-pyrrolo[2,1-c][1,4]benzodiazepine-3-carboxamide]
22 | 488 | – | COc1ccccc1-c1ccc(C(=O)N2Cc3ccc(C(=O)N4CCN(CCN5CCOCC5)CC4)n3Cc3ccccc32)cc1 [Example 207, {10-[(2′-Methoxy[1,1′-biphenyl]-4-yl)carbonyl]-10,11-dihydro-5H-pyrrolo[2,1-c][1,4]benzodiazepin-3-yl}{4-[2-(4-morpholinyl)ethyl]-1-piperazinyl}methanone]
23 | 316 | – | COc1ccccc1-c1ccc(C(=O)N2Cc3ccc(C(=O)N4CCCN(C)CC4)n3Cc3ccccc32)cc1 [Example 61, {10-[(2′-Methoxy[1,1′-biphenyl]-4-yl)carbonyl]-10,11-dihydro-5H-pyrrolo[2,1-c][1,4]benzodiazepin-3-yl}(4-methyl-1,4-diazepan-1-yl)methanone]
24 | – | 74 | COc1cc(C(=O)N2Cc3ccc(C(=O)N(C)CCCN(C)C)n3Cc3ccccc32)ccc1-c1ccccc1C [Example 105, N-[3-(Dimethylamino)propyl]-10-[(2-methoxy-2′-methyl[1,1′-biphenyl]-4-yl)carbonyl]-N-methyl-10,11-dihydro-5H-pyrrolo[2,1-c][1,4]benzodiazepine-3-carboxamide]
25 | 387 | – | C=CCN1CCN(C(=O)c2ccc3n2Cc2ccccc2N(C(=O)c2ccc(-c4ccccc4C)c(C)c2)C3)CC1 [Example 220, (4-Allyl-1-piperazinyl){10-[(2,2′-dimethyl[1,1′-biphenyl]-4-yl)carbonyl]-10,11-dihydro-5H -pyrrolo[2,1-c][1,4]benzodiazepin-3-yl}methanone]
26 | 681 | – | COc1cc(-c2ccccc2C)c(Cl)cc1C(=O)N1Cc2ccc(C(=O)N3CCCN(C)CC3)n2Cc2ccccc21 [Example 60, {10-[(6-Chloro-3-methoxy-2′-methyl[1,1′-biphenyl]-4-yl)carbonyl]-10,11-dihydro-5H-pyrrolo[2,1-c][1,4]benzodiazepin-3-yl}(4-methyl-1,4-diazepan-1-yl)methanone]
